For data set [1], the system named is Leishmania major. Nature of the data set: Antileishmanial activity against Leishmania major MHOM/IL/81/FE/BNI promastigotes by alamar blue assay. It counts as functional, organism-based. The note with it: Leishmania major. For orientation: Resazurin is reduced to fluorescent resorufin, in cell work by metabolically active cells.
Data set [2] has as its system Macrophage. Put plainly: Reduction of IL6 production in LPS-stimulated BALB/c mouse peritoneal macrophages infected with Leishmania major MHOM/IL/81/FE/BNI promastigotes at 3 uM after 24 hrs by sandwich ELISA. The data set is classed as functional, cell-based.
Data set [3] has as its system Macrophage. Put plainly: Decrease in IL10 secretion in LPS-stimulated BALB/c mouse peritoneal macrophages infected with Leishmania major MHOM/IL/81/FE/BNI promastigotes at 3 uM after 24 hrs by sandwich ELISA. It counts as functional, cell-based. A general note: An ELISA detects its analyte on a solid surface through an enzyme-linked reagent.
In data set [4] the test system is Leishmania major. Put plainly: Antileishmanial activity against Leishmania major MHOM/IL/81/FE/BNI promastigotes infected in BALB/c mouse peritoneal macrophages assessed as decrease in infection rate after 48 hrs by fluorescence microscopy in presence of interferon-gamma. The data set is classed as functional, organism-based.
Data set [5] can be described thus: Cytotoxicity against mouse NIH/3T3 after 48 hrs by alamar blue assay. It counts as cell-based. The note with it: NIH3T3, 48 h.
Data set [6] can be described thus: Cytotoxicity against BALB/c mouse DC after 48 hrs by alamar blue assay.
Data set [7] has as its system Macrophage. Put plainly: Reduction of TNFalpha production in LPS-stimulated BALB/c mouse peritoneal macrophages infected with Leishmania major MHOM/IL/81/FE/BNI promastigotes at 3 uM after 24 hrs by sandwich ELISA. The data set is classed as functional, cell-based.
In data set [8] the test system is Macrophage. Nature of the data set: Decrease in IL10 secretion in IFN-gamma-stimulated BALB/c mouse peritoneal macrophages infected with Leishmania major MHOM/IL/81/FE/BNI promastigotes at 3 uM after 24 hrs by sandwich ELISA. It counts as functional, cell-based.
Data set [9] concerns the target T1, Cytochrome P450 2D6 (Homo sapiens, UniProt P10635). Nature of the data set: Inhibition of human CYP2D6 expressed in baculovirus-infected insect cell system. The data set is classed as ADME.
Data set [10] is described as follows: Selectivity index, ratio of IC50 for mouse J774.1 cells to IC50 for Leishmania major MHOM/IL/81/FE/BNI promastigotes. It counts as toxicity. The note with it: J774.1 cells, read-out: Ratio IC50.
Data set [11] deals with Macrophage. Nature of the data set: Increase in nitric oxide production in LPS-stimulated BALB/c mouse peritoneal macrophages infected with Leishmania major MHOM/IL/81/FE/BNI promastigotes at 3 uM after 48 hrs by […]. It counts as functional, cell-based.
Data set [12] addresses T1, Cytochrome P450 2D6. Nature of the data set: Inhibition of human CYP2D6 at 1 to 100 uM by LC/ESI-MS analysis. The data set is classed as ADME.
The subject of data set [13] is Leishmania major. Put plainly: Antileishmanial activity against Leishmania major MHOM/IL/81/FE/BNI promastigotes infected in BALB/c mouse peritoneal macrophages assessed as decrease in infection rate after 48 hrs by fluorescence microscopy. The data set is classed as functional, organism-based.
Another data set deals with Cytochrome P450 2C19 (Homo sapiens, UniProt P33261). Put plainly: Inhibition of human CYP2C19 at 100 uM by LC/ESI-MS analysis. The data set is classed as ADME.
Cytochrome P450 2C19, sequence (P33261 whole entry): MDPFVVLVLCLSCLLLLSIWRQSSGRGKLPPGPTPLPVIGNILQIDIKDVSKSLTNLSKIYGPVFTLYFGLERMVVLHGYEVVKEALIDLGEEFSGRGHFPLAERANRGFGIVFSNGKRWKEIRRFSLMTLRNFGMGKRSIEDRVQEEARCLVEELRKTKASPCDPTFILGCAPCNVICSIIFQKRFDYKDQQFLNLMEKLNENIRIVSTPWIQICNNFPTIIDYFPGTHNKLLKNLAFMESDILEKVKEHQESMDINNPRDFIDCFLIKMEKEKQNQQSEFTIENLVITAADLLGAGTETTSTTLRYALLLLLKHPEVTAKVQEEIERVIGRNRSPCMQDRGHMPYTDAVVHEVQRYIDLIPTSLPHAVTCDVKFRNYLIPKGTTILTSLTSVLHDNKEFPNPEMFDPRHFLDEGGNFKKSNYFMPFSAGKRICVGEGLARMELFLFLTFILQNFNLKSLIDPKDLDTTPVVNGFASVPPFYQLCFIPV
For the next data set, the target named is Cytochrome P450 2C9 (Homo sapiens, UniProt P11712). Nature of the data set: Inhibition of human CYP2C9 at 100 uM by LC/ESI-MS analysis. It counts as ADME.
Cytochrome P450 2C9, sequence (P11712 whole entry): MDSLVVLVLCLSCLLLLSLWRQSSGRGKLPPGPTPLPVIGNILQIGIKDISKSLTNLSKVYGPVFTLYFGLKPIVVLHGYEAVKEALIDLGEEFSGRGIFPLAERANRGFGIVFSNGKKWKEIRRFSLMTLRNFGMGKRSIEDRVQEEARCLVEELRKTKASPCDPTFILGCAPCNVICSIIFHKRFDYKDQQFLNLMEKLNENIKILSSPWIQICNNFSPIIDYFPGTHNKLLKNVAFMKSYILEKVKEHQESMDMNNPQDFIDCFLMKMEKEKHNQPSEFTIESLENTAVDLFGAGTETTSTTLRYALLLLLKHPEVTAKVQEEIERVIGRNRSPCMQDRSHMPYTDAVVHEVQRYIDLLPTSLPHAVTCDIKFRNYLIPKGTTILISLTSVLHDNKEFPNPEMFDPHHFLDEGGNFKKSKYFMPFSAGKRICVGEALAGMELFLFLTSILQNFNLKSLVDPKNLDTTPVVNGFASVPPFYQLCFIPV
The next data set has as its target Albumin (Bos taurus, UniProt P02769). Put plainly: Binding affinity to bovine serum albumin by ultrafiltration method. The data set is classed as ADME. Particulars: cattle; for fraction unbound: bovine serum albumin, read-out: PPB (converted).
The test system of data set [14] is Macrophage. Nature of the data set: Reduction of IL6 production in IFN-gamma-stimulated BALB/c mouse peritoneal macrophages infected with Leishmania major MHOM/IL/81/FE/BNI promastigotes at 3 uM after 24 hrs by sandwich ELISA. It counts as functional, cell-based.
A short description of data set [15]: Antiproliferative activity against mouse J774.1 cells after 48 hrs by alamar blue assay. Particulars: Mus musculus, J774.1, 48 h. The data set is classed as cell-based.
The nature of data set [16]: Cytotoxicity against BALB/c mouse peritoneal macrophages after 48 hrs by alamar blue assay. The data set is classed as cell-based. Particulars: Macrophage.
Data set [17] concerns the target T1, Cytochrome P450 2D6. Nature of the data set: Inhibition of human CYP2D6 by Lineweaver-Burke plot. It counts as ADME.
The next data set has as its target Cytochrome P450 3A4 (Homo sapiens, UniProt P08684). Nature of the data set: Inhibition of human CYP3A4 at 100 uM by LC/ESI-MS analysis. The data set is classed as ADME.
The nature of data set [18]: Ratio of IC50 for BALB/c mouse peritoneal macrophages to EC50 for Leishmania major MHOM/IL/81/FE/BNI promastigotes.
Data set [19] deals with Macrophage. Nature of the data set: Reduction of TNFalpha production in IFN-gamma-stimulated BALB/c mouse peritoneal macrophages infected with Leishmania major MHOM/IL/81/FE/BNI promastigotes at 3 uM after 24 hrs by sandwich ELISA. The data set is classed as functional, cell-based.
The test system of data set [20] is Macrophage. Nature of the data set: Increase in TGFbeta secretion in BALB/c mouse peritoneal macrophages infected with Leishmania major MHOM/IL/81/FE/BNI promastigotes at 3 uM after 24 hrs by sandwich ELISA. It counts as functional, cell-based.
The subject of data set [21] is Macrophage. Put plainly: Increase in nitric oxide production in BALB/c mouse peritoneal macrophages infected with Leishmania major MHOM/IL/81/FE/BNI promastigotes at 3 uM after 48 hrs by […] relative to noninfected cells. It counts as functional.
In data set [22] the test system is Macrophage. Nature of the data set: Increase in nitric oxide production in IFN-gamma-stimulated BALB/c mouse peritoneal macrophages infected with Leishmania major MHOM/IL/81/FE/BNI promastigotes at 3 uM after 48 hrs by […] relative to noninfected cells. It counts as functional.
Data set [23] deals with Macrophage. Put plainly: Increase in TGFbeta secretion in IFN-gamma-stimulated BALB/c mouse peritoneal macrophages infected with Leishmania major MHOM/IL/81/FE/BNI promastigotes at 3 uM after 24 hrs by sandwich ELISA. The data set is classed as functional, cell-based.

Active and inactive are the calls of the source. The rule behind the calls is not given here.

T1 sequence (P10635 whole entry): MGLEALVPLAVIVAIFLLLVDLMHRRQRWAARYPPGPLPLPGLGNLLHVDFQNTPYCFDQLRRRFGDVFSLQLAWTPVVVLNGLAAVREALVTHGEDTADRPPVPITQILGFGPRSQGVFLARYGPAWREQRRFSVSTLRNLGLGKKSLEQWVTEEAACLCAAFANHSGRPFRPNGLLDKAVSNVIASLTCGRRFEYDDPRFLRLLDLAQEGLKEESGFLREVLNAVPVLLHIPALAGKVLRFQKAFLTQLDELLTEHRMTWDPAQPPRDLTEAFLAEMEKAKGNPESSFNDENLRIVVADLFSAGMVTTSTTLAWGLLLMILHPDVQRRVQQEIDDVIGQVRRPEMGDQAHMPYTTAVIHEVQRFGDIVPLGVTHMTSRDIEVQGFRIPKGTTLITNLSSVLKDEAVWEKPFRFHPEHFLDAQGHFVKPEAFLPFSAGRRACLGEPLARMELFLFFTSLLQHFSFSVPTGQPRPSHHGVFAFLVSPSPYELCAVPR
Cytochrome P450 3A4, sequence (P08684 whole entry): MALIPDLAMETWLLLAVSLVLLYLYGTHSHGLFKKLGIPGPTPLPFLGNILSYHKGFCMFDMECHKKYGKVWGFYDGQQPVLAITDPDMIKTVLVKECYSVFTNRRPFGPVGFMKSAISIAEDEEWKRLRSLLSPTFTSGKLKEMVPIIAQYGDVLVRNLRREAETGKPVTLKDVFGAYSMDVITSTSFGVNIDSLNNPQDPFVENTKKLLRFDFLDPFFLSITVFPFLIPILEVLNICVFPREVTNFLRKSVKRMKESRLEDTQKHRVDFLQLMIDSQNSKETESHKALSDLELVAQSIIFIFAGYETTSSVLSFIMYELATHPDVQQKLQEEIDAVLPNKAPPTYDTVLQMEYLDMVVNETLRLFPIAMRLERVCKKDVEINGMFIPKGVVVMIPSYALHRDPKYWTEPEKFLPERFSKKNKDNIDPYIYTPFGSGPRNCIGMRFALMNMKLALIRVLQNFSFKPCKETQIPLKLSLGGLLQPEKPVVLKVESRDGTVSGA
Albumin, sequence (P02769 whole entry): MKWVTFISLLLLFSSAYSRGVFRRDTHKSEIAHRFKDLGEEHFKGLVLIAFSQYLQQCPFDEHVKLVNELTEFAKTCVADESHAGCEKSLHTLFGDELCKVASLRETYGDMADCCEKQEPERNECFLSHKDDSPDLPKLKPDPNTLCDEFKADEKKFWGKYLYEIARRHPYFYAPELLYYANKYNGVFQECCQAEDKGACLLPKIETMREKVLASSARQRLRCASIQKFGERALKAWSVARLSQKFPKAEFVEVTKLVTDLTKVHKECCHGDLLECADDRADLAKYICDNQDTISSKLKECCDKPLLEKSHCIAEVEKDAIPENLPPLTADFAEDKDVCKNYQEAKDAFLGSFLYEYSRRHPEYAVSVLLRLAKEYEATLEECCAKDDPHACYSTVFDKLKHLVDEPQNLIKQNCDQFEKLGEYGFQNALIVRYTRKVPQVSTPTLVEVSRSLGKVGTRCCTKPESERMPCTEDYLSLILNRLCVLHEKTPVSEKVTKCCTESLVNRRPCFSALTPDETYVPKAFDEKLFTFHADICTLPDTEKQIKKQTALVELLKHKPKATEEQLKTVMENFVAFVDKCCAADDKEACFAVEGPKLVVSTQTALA

The term IC50 denotes the concentration needed to halve the response being measured. Lower therefore signals greater potency. A word on the EC50: it is the concentration that produces a half-maximal response. What is called Ki is the equilibrium dissociation constant of an inhibitor or competing ligand from its target. Low readings indicate higher affinity, high ones lower affinity. For `COc1cc(OC)c2c(C)[n+](-c3ccc(C)cc3)c(C)cc2c1.F[B-](F)(F)F`, the half-inhibitory concentration (IC50) in the data set on Leishmania major [1] is 2.64 µM; in [5], 49.8 µM; in [6], 24 µM; on Cytochrome P450 2D6 [9], 0.0561 µM; in data set [15], 14.6 µM; in [16] it was 12.8 µM. For the same compound, the outcome in the data set with Macrophage [2], in the data set on Leishmania major [4], in the data set with Macrophage [7], in the data set on Macrophage [14] and with Macrophage [19] was Active. Further, the result in the data set with Macrophage [3], in the data set on Macrophage [8] and in the data set on Macrophage [11] was inactive. Besides, the selectivity ratio in [10] stood at 5.55. The outcome on Cytochrome P450 2D6 [12], at Cytochrome P450 2C19, at Cytochrome P450 2C9 and on Cytochrome P450 3A4 was Active. Also, the EC50 with Leishmania major [13] was 0.092 µM. Further, on Albumin, the fraction unbound is 0.441. This compound also displayed a Ki at Cytochrome P450 2D6 [17] of 0.0281 µM. For the same compound, in data set [18], the “Ratio IC50/EC50” value is 138.
Turning to `COc1cc(OC)c2c(C)[n+](-c3ccc(C(C)C)cc3)c(C)cc2c1.O=C([O-])C(F)(F)F`, the IC50 with Leishmania major [1] turned out to be 2 µM; in data set [5], 11.1 µM; in data set [6], 7.6 µM; at Cytochrome P450 2D6 [9], 0.109 µM; in data set [15], 13.1 µM; in data set [16], 8.81 µM. The result in the data set with Macrophage [20], with Macrophage [2], in the data set with Macrophage [3], in the data set on Leishmania major [4], in the data set with Macrophage [8] and in the data set with Macrophage [14] was Active. The result in the data set with Macrophage [23] and in the data set with Macrophage [19] was Active. Further, the entries for the “fold change (FC)” value in the data set on Macrophage [21] and in the data set on Macrophage [22] were 2.7 and 3, respectively. Also, the selectivity ratio in data set [10] turned out to be 6.55. Further, the outcome with Macrophage [11] was inactive. The Activity entry at Cytochrome P450 2D6 [12] is “Active”; at Cytochrome P450 2C19, “Not Active”; on Cytochrome P450 2C9, “Not Active”; at Cytochrome P450 3A4, “Not Active”. Moreover, the 50% effective concentration (EC50) in the data set with Leishmania major [13] worked out at 0.158 µM. In addition, the fraction unbound on Albumin was 0.297. Further, the Ki at Cytochrome P450 2D6 [17] was found to be 0.0547 µM. For the same compound, in [18], the “Ratio IC50/EC50” value stood at 56.
As for `COc1cc(OC)c2c(C)[n+](-c3cccc4ccccc34)c(C)cc2c1.[O-][Cl+3]([O-])([O-])[O-]`, at Cytochrome P450 2D6 [9], it took 0.9 µM to reach half-maximal inhibition (IC50). Further, the result on Cytochrome P450 2D6 [12], at Cytochrome P450 2C19, on Cytochrome P450 2C9, on Albumin (isolated protein) and on Cytochrome P450 3A4 was Active. For the same compound, the Ki at Cytochrome P450 2D6 [17] amounted to 0.45 µM.
`COc1cc(OC)c2c(C)[n+](-c3c(C)cccc3C)c(C)cc2c1.F[B-](F)(F)F`: the IC50 in the data set on Leishmania major [1] was 3.49 µM; in data set [5] it was 37.6 µM; in data set [6], 8.76 µM; in [15] it was 27.3 µM; in data set [16] it was 9.67 µM. Moreover, the result in the data set with Macrophage [2], in the data set with Macrophage [3], in the data set with Leishmania major [4], in the data set with Macrophage [8], with Macrophage [14] and in the data set with Macrophage [19] was Active. Besides, in [10], the selectivity ratio is 7.82. Besides, the outcome in the data set on Macrophage [11] was inactive. In addition, the Activity result is “Not Active” on Cytochrome P450 2D6 [12], “Active” at Cytochrome P450 2C19, “Active” at Cytochrome P450 2C9 and “Active” on Cytochrome P450 3A4. Also, the EC50 in the data set on Leishmania major [13] was 0.241 µM. The fraction unbound at Albumin is 0.538. Moreover, in data set [18], the “Ratio IC50/EC50” value stood at 40.
As to `COc1cc(OC)c2c(C)[n+](-c3cccc4ccccc34)c(C)cc2c1`, the result in the data set on Macrophage [20], with Macrophage [2], in the data set on Macrophage [7], in the data set on Macrophage [14], with Macrophage [23] and in the data set on Macrophage [19] was Active. Further, the result in the data set with Macrophage [3], with Macrophage [8] and with Macrophage [11] was inactive.

The values are drawn from ChEMBL document CHEMBL1143311, “Structure-activity relationship and studies on the molecular mechanism of leishmanicidal N,C-coupled arylisoquinolinium salts” (J Med Chem, 2009).
